Source: PubChem BioAssay AID2060604 (Molecular Pharmacology Branch, DTP, NCI, 2025)

System: 379773-124-R-J2-PDC complex spheroids, viability % test/control
Test: Anticancer human tumor 379773-124-R-J2-PDC patient-derived endometrial carcinoma cell line growth inhibition [CLK]
Conditions: for IC50: curve of first compound; for viability, T/C: stronger effect = lower value; active = viability on the fitted dose curve at most 10% of control; inactive = the rest
Method in brief: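 Patient-derived tumor cells grown as complex spheroids with HUVEC endothelial cells and mesenchymal stem cells, treated with drug combinations. Concentrations descend in half-log steps from near clinical Cmax, or from 10 microM if Cmax unknown.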

[1] = second compound 0.0316 µM, first compound 0.0316 µM
[2] = second compound 0.0316 µM, first compound 0.1 µM
[3] = second compound 0.0316 µM, first compound 0.316 µM
[4] = second compound 0.0316 µM, first compound 1 µM
[5] = second compound 0.1 µM, first compound 0.0316 µM
[6] = second compound 0.1 µM, first compound 0.1 µM
[7] = second compound 0.1 µM, first compound 0.316 µM
[8] = second compound 0.1 µM, first compound 1 µM
[9] = second compound 0.316 µM, first compound 0.0316 µM
[10] = second compound 0.316 µM, first compound 0.1 µM
[11] = second compound 0.316 µM, first compound 0.316 µM
[12] = second compound 0.316 µM, first compound 1 µM
[13] = second compound 1 µM, first compound 0.0316 µM
[14] = second compound 1 µM, first compound 0.1 µM
[15] = second compound 1 µM, first compound 0.316 µM
[16] = second compound 1 µM, first compound 1 µM
[17] = second compound 3.16 µM, first compound 0.0316 µM
[18] = second compound 3.16 µM, first compound 0.1 µM
[19] = second compound 3.16 µM, first compound 0.316 µM
[20] = second compound 3.16 µM, first compound 1 µM
[21] = second compound 10 µM, first compound 0.0316 µM
[22] = second compound 10 µM, first compound 0.1 µM
[23] = second compound 10 µM, first compound 0.316 µM
[24] = second compound 10 µM, first compound 1 µM
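Note: compound exposure lasted seven days before the viability readout.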
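Throughout, for viability, T/C: 100% = DMSO vehicle control wells.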

CCc1c2c(nc3ccc(O)cc13)-c1cc3c(c(=O)n1C2)COC(=O)[C@]3(O)CC + CNC(=O)c1ccc(Nc2nc(OC3CCCC3)c3c(-c4ccc5nc(C)oc5c4)c[nH]c3n2)c(OC)c1
active: viability, T/C (second compound 0.0316 µM, first compound 0.01 µM) 6.83% | viability, T/C [1] 2.79% | viability, T/C [2] 1.86% | viability, T/C [3] 0.94% | viability, T/C [4] 0.4% | viability, T/C (second compound 0.1 µM, first compound 0.00316 µM) 7.91% | viability, T/C (second compound 0.1 µM, first compound 0.01 µM) 4.87% | viability, T/C [5] 2.4% | viability, T/C [6] 1.19% | viability, T/C [7] 0.65% | viability, T/C [8] 0.35% | viability, T/C (second compound 0.316 µM, first compound 0.00316 µM) 6.52% | viability, T/C (second compound 0.316 µM, first compound 0.01 µM) 5.08% | viability, T/C [9] 2.12% | viability, T/C [10] 1.42% | viability, T/C [11] 0.6% | viability, T/C [12] 0.25% | viability, T/C (second compound 1 µM, first compound 0.00316 µM) 5.11% | viability, T/C (second compound 1 µM, first compound 0.01 µM) 4.25% | viability, T/C [13] 2.43% | viability, T/C [14] 0.96% | viability, T/C [15] 0.45% | viability, T/C [16] 0.37% | viability, T/C (second compound 3.16 µM, first compound 0.00316 µM) 5.35% | viability, T/C (second compound 3.16 µM, first compound 0.01 µM) 4.96% | viability, T/C [17] 1.98% | viability, T/C [18] 1.08% | viability, T/C [19] 0.6% | viability, T/C [20] 0.2% | viability, T/C (second compound 10 µM, first compound 0.00316 µM) 5.38% | viability, T/C (second compound 10 µM, first compound 0.01 µM) 4.45% | viability, T/C [21] 2.55% | viability, T/C [22] 1.19% | viability, T/C [23] 0.79% | viability, T/C [24] 0.39%
< 3.16 nM: IC50 (second compound 0.0316 µM) | IC50 (second compound 0.1 µM) | IC50 (second compound 0.316 µM) | IC50 (second compound 1 µM) | IC50 (second compound 3.16 µM) | IC50 (second compound 10 µM)
inactive: viability, T/C (second compound 0.0316 µM, first compound 0.00316 µM) 12.8%

O=c1[nH]cc(F)c(=O)[nH]1 + CNC(=O)c1ccc(Nc2nc(OC3CCCC3)c3c(-c4ccc5nc(C)oc5c4)c[nH]c3n2)c(OC)c1
> 10000 nM: IC50 (second compound 0.0316 µM)
< 31.6 nM: IC50 (second compound 0.1 µM) | IC50 (second compound 0.316 µM) | IC50 (second compound 1 µM) | IC50 (second compound 3.16 µM) | IC50 (second compound 10 µM)
inactive: viability, T/C [1] 86.5% | viability, T/C [2] 76.3% | viability, T/C [3] 80.7% | viability, T/C [4] 70.5% | viability, T/C (second compound 0.0316 µM, first compound 3.16 µM) 70.8% | viability, T/C (second compound 0.0316 µM, first compound 10 µM) 54.5% | viability, T/C [5] 50.4% | viability, T/C [6] 35.9% | viability, T/C [7] 31.5% | viability, T/C [8] 33.3% | viability, T/C (second compound 0.1 µM, first compound 3.16 µM) 29.7% | viability, T/C (second compound 0.1 µM, first compound 10 µM) 28.2% | viability, T/C [9] 41% | viability, T/C [10] 35.2% | viability, T/C [11] 34.5% | viability, T/C [12] 33.7% | viability, T/C (second compound 0.316 µM, first compound 3.16 µM) 24% | viability, T/C (second compound 0.316 µM, first compound 10 µM) 18.1% | viability, T/C [13] 36.9% | viability, T/C [14] 29.2% | viability, T/C [15] 30.5% | viability, T/C [16] 27.2% | viability, T/C (second compound 1 µM, first compound 3.16 µM) 20.2% | viability, T/C (second compound 1 µM, first compound 10 µM) 10.7% | viability, T/C [17] 36.1% | viability, T/C [18] 37.1% | viability, T/C [19] 34.8% | viability, T/C [20] 19.3% | viability, T/C (second compound 3.16 µM, first compound 3.16 µM) 15.3% | viability, T/C [21] 42.5% | viability, T/C [22] 31.3% | viability, T/C [23] 28.6% | viability, T/C [24] 23.5% | viability, T/C (second compound 10 µM, first compound 3.16 µM) 14.4%
active: viability, T/C (second compound 3.16 µM, first compound 10 µM) 9.65% | viability, T/C (second compound 10 µM, first compound 10 µM) 9.98%
